This test relates to C57BL/6 mice. Description: animal or person. As to conditions: Mus musculus, sc, 0.5 h, s.c. administration, 30 min, 55° C. water, read-out: ED50 (mg/kg) at 30 min on C57BL/6 mice in Warm-water Tail-flick Test. Type of test: in vivo.
With `CCOCC1(CCc2ccccc2)CCN(C(C)c2ccc(C)nc2C)C1` (stereo not drawn) [Compound 305, 3-(1-(3-(ethoxymethyl)-3-phenethylpyrrolidin-1-yl)ethyl)-2,6-dimethylpyridine], the ED50 was less than 10 mg/kg.

As for `CCOCC1(CCc2ccsc2)CCN(Cc2ccc(C)nc2C)C1` (stereo not drawn) [Compound 306, 3-((3-(ethoxymethyl)-3-(2-(thiophen-3-yl)ethyl)pyrrolidin-1-yl)methyl)-2,6-dimethylpyridine], the ED50 was less than 10 mg/kg.

Turning to `CCOC[C@@]1(CCc2ccccc2)CCN(Cc2ccc(C)nc2C)C1` [Compound 307, (S)-3-((3-(ethoxymethyl)-3-phenethylpyrrolidin-1-yl)methyl)-2,6-dimethylpyridine], the ED50 was less than 10 mg/kg.

In the case of `CCOCC1(CCc2nc3ccccc3o2)CCN(Cc2cccnc2)C1` (stereo not drawn) [Compound 308, 2-(2-(3-(ethoxymethyl)-1-(pyridin-3-ylmethyl)pyrrolidin-3-yl)ethyl)benzo[d]oxazole], the ED50 is more than 10 mg/kg.

Take `CCOCC1(CCc2csc3ccccc23)CCN(Cc2cccnc2)C1` (stereo not drawn) [Compound 309, 3-((3-(2-(benzo[b]thiophen-3-yl)ethyl)-3-(ethoxy-methyl)pyrrolidin-1-yl)methyl)pyridine]: the ED50 was more than 10 mg/kg.

Consider `Cc1ccc(CN2CCC(CCc3ccccc3)(c3ccccn3)CC2)c(C)n1` [Compound 310, 2,6-dimethyl-3-((4-phenethyl-4-(pyridin-2-yl)piperidin-1-yl)methyl)pyridine], for which the ED50 is less than 10 mg/kg.

With `CCOCC1(CCc2ccc(F)cc2)CCN(Cc2ccc(C)nc2C)C1` (stereo not drawn) [Compound 311, 3-((3-(ethoxymethyl)-3-(4-fluoro-phenethyl)pyrrolidin-1-yl)methyl)-2,6-dimethylpyridine], the ED50 was less than 10 mg/kg.

Regarding `CCOCC1(CCc2cc(C)sc2C)CCN(Cc2cnn(C)c2)C1` (stereo not drawn) [Compound 312, 4-((3-(2-(2,5-dimethylthiophen-3-yl)ethyl)-3-(ethoxy-methyl)pyrrolidin-1-yl)methyl)-1-methyl-1H-pyrazole], the ED50 is less than 10 mg/kg.

Take `CCOCC1(c2ccccn2)CCN(Cc2ccc(C)nc2C)C1` (stereo not drawn) [Compound 313, 3-((3-(ethoxymethyl)-3-(pyridin-2-yl)pyrrolidin-1-yl)methyl)-2,6-dimethylpyridine]: the ED50 is more than 10 mg/kg.

As to `COCCC1(c2ccccn2)CCN(Cc2ccc(C)nc2C)C1` (stereo not drawn) [Compound 314, 3-((3-(2-methoxyethyl)-3-(pyridin-2-yl)pyrrolidin-1-yl)methyl)-2,6-dimethylpyridine], the ED50 was more than 10 mg/kg.

Regarding `CCOCC1(CCc2ccccc2)CCN(Cc2cccn2-c2cccnc2)C1` (stereo not drawn) [Compound 315, 3-(2-((3-(ethoxymethyl)-3-phenethylpyrrolidin-1-yl)methyl)-1H-pyrrol-1-yl)pyridine], the ED50 is more than 10 mg/kg.

Turning to `CCOCC1(CCc2ccccc2)CCN(Cc2ccccc2-c2cccs2)C1` (stereo not drawn) [Compound 316, 3-(ethoxymethyl)-3-phenethyl-1-(2-(thiophen-2-yl)benzyl)pyrrolidine], the ED50 is more than 10 mg/kg.

As for `CCOCC1(CCc2ccccc2)CCN(Cc2ccccc2-c2ccco2)C1` (stereo not drawn) [Compound 317], the ED50 was more than 10 mg/kg.

On to `CCOC[C@@]1(CCc2ccsc2)CCN(Cc2ccc(C)nc2)C1` [Compound 318, (S)-5-((3-(ethoxymethyl)-3-(2-(thiophen-3-yl)ethyl)pyrrolidin-1-yl)methyl)-2-methylpyridine], for which the ED50 is less than 10 mg/kg.

`CCOC[C@@]1(CCc2ccccc2)CCN(Cc2ccc(C)nc2)C1` [Compound 319, (S)-5-((3-(ethoxymethyl)-3-phenethylpyrrolidin-1-yl)methyl)-2-methylpyridine]: the ED50 is less than 10 mg/kg.

Take `CCOC[C@@]1(CCc2ccc(F)cc2)CCN(Cc2ccc(C)nc2)C1` [Compound 320, (S)-5-((3-(ethoxymethyl)-3-(4-fluoro-phenethyl)pyrrolidin-1-yl)methyl)-2-methylpyridine]: the ED50 is less than 10 mg/kg.

Turning to `CCOC[C@@]1(CCc2cc(C)cs2)CCN(Cc2ccc(C)nc2)C1` [Compound 321, (S)-5-((3-(ethoxymethyl)-3-(2-(4-methylthiophen-2-yl)ethyl)pyrrolidin-1-yl)methyl)-2-methylpyridine], the ED50 is less than 10 mg/kg.

Consider `CCOC[C@@]1(CCc2ccc(F)cc2)CCN(Cc2cccnc2)C1` [Compound 322, (S)-3-((3-(ethoxymethyl)-3-(4-fluorophenethyl)pyrrolidin-1-yl)methyl)pyridine], for which the ED50 is less than 10 mg/kg.

`CCOC[C@@]1(CCc2csc(C)c2)CCN(Cc2cccnc2)C1` [Compound 323, (S)-3-((3-(ethoxymethyl)-3-(2-(5-methylthiophen-3-yl)ethyl)pyrrolidin-1-yl)methyl)pyridine]: the ED50 was less than 10 mg/kg.

With `CCOC[C@@]1(CCc2ccsc2)CCN(Cc2ccc(NC(C)=O)cc2)C1` [Compound 324, (S)-N-(4-((3-(ethoxymethyl)-3-(2-(thiophen-3-yl)ethyl)pyrrolidin-1-yl)methyl)phenyl)acetamide], the ED50 was less than 10 mg/kg.

Consider `CCOCC1(CCc2ccccc2)CCN(C(C)c2cccnc2)CC1` (stereo not drawn) [Compound 327, 3-(1-(4-(ethoxymethyl)-4-phenethylpiperidin-1-yl)ethyl)pyridine], for which the ED50 is less than 10 mg/kg.

Regarding `Cc1ccc(C(C)N2CCC(CCc3ccccc3)(c3ccccn3)CC2)c(C)n1` (stereo not drawn) [Compound 328, 2,6-dimethyl-3-(1-(4-phenethyl-4-(pyridin-2-yl)piperidin-1-yl)ethyl)pyridine], the ED50 was less than 10 mg/kg.

With `CCOC[C@@]1(CCc2cc(C)cs2)CCN(Cc2ccc(C)nc2C)C1` [Compound 329, (S)-3-((3-(ethoxymethyl)-3-(2-(4-methylthiophen-2-yl)ethyl)pyrrolidin-1-yl)methyl)-2,6-dimethylpyridine], the ED50 is less than 10 mg/kg.

For the compound `CCOC[C@@]1(CCc2csc(C)c2)CCN(Cc2ccc(C)nc2C)C1` [Compound 330, (S)-3-((3-(ethoxymethyl)-3-(2-(5-methylthiophen-yl)ethyl)pyrrolidin-1-yl)methyl)-2,6-dimethylpyridine], the ED50 was less than 10 mg/kg.

For the compound `CCOC[C@@]1(CCc2cscc2C)CCN(Cc2ccc(C)nc2C)C1` [Compound 331, (S)-3-((3-(ethoxymethyl)-3-(2-(4-methylthiophen-3-yl)ethyl)pyrrolidin-1-yl)methyl)-2,6-dimethylpyridine], the ED50 is less than 10 mg/kg.

`CCOCC1(CCc2ccccc2)CCN(C(C)c2cnn(C)c2)C1` (stereo not drawn) [Compound 332, 4-(1-(3-(ethoxymethyl)-3-phenethylpyrrolidin-1-yl)ethyl)-l-methyl-1H-pyrazole]: the ED50 was less than 10 mg/kg.

As to `CCOC[C@@]1(CCc2cccs2)CCN(Cc2ccc(C)nc2)C1` [Compound 333, (S)-5-((3-(ethoxymethyl)-3-(2-(thiophen-2-yl)ethyl)pyrrolidin-1-yl)methyl)-2-methylpyridine], the ED50 was less than 10 mg/kg.

As for `CCOC[C@@]1(CCc2cccs2)CCN(Cc2ccc(C)nc2C)C1` [Compound 334, (S)-3-((3-(ethoxymethyl)-3-(2-(thiophen-2-yl)ethyl)pyrrolidin-1-yl)methyl)-2,6-dimethylpyridine], the ED50 was less than 10 mg/kg.

Regarding `CCOC[C@@]1(CCc2csc(C)c2)CCN(Cc2ccc(C)nc2)C1` [Compound 335, (S)-5-((3-(ethoxymethyl)-3-(2-(5-methylthiophen-3-yl)ethyl)pyrrolidin-1-yl)methyl)-2-methylpyridine], the ED50 is less than 10 mg/kg.

In the case of `CCOC[C@@]1(CCc2ccsc2)CCN(Cc2ccc(C)nc2C)C1` [Compound 336], the ED50 was less than 10 mg/kg.

Consider `CCOC[C@@]1(CCc2cc(C)cs2)CCN(Cc2cccnc2)C1.Cl` [Compound 337], for which the ED50 was less than 10 mg/kg.

Turning to `CCOCC1(CCc2ccccc2)CCN(CC(O)c2ccc(C)nc2)C1` (stereo not drawn) [Compound 338, 2-(3-(ethoxymethyl)-3-phenethylpyrrolidin-1-yl)-1-(6-methylpyridin-3-yl)ethanol], the ED50 is more than 10 mg/kg.

As to `Cc1ccc(N(C)N2CCC(CCc3ccccc3)(c3ccccn3)CC2)c(C)n1` [Compound 339, N,2,6-trimethyl-N-(4-phenethyl-4-(pyridin-2-yl)piperidin-1-yl)pyridin-3-amine], the ED50 was more than 10 mg/kg.

Take `CCOCC1(CCc2ccccc2)CCN(Cc2csc(C)n2)C1` (stereo not drawn) [Compound 340, 4-((3-(ethoxymethyl)-3-phenethylpyrrolidin-1-yl)methyl)-2-methylthiazole]: the ED50 was more than 10 mg/kg.

For the compound `CCOCC1(CCc2ccccc2)CCN(C(C)c2csc(C)n2)C1` (stereo not drawn) [Compound 341, 4-(1-(3-(ethoxymethyl)-3-phenethylpyrrolidin-1-yl)ethyl)-2-methylthiazole], the ED50 is less than 10 mg/kg.

As to `CCOCC1(CCc2ccccc2)CCN(C(CO)c2ccc(C)nc2)C1` (stereo not drawn) [Compound 342, 2-(3-(ethoxymethyl)-phenethylpyrrolidin-1-yl)-2-(6-methylpyridin-3-yl)ethanol], the ED50 was less than 10 mg/kg.

On to `CCOCC1(CCc2ccccc2)CCN(C(C)(C)c2cccnc2)C1` (stereo not drawn) [Compound 343, 3-(2-(3-(ethoxymethyl)-3-phenethylpyrrolidin-1-yl)propan-2-yl)pyridine], for which the ED50 is less than 10 mg/kg.

With `CCOC[C@@]1(CCc2ccc(F)s2)CCN(Cc2ccc(C)nc2)C1` [Compound 344], the ED50 is less than 10 mg/kg.

As for `CCOC[C@@]1(CCc2ccc(F)s2)CCN(Cc2cccnc2)C1` [Compound 345, (S)-3-((3-(ethoxymethyl)-3-(2-(5-fluorothiophen-2-yl)ethyl)pyrrolidin-1-yl)methyl)pyridine], the ED50 was less than 10 mg/kg.

Take `CCOCC1(CCc2ccccc2)CCN(C(C)c2cnc(C)s2)C1` (stereo not drawn) [Compound 346, 5-(1-(3-(ethoxymethyl)-3-phenethylpyrrolidin-1-yl)ethyl)-2-methylthiazole]: the ED50 is less than 10 mg/kg.

As for `CCOCC1(CCc2ccccc2)CCN(C(C)C(O)c2ccc(C)nc2)C1` (stereo not drawn) [Compound 347, 2-(3-(ethoxymethyl)-3-phenethylpyrrolidin-1-yl)-1-(6-methylpyridin-3-yl)propan-1-ol], the ED50 was more than 10 mg/kg.

For `Cc1ccc(CN2CC[C@](CCc3ccsc3)([C@@H]3CCCO3)C2)cn1` [Compound 348, 2-methyl-5-(((S)-3-((S)-tetrahydrofuran-2-yl)-3-(2-(thiophen-3-yl)ethyl)pyrrolidin-1-yl)methyl)pyridine], the ED50 is less than 10 mg/kg.

The values are drawn from patent US11584765B2 (priority 2017, dated 2023).
